Values after ≈ are worked out from the molar mass of the structure shown.
Columns and labels:
E. coli D64 = assay: stimulating growth of streptomycin-dependent E. coli D64 (paper disc); assay type: cell-based; conditions: for Growth zone vs E. coli D64, hazy growth zone: value in parentheses
Text: The results are shown in Table 4 wherein the term "boholmycin" is used for short in referring to boholmycin dihydrochloride tetrahydrate.

B. subtilis PCI-219 = assay: inhibiting growth of B. subtilis PCI-219 (paper disc); assay type: cell-based; conditions: 28° C., 18 hours
Procedure: Boholmycin dihydrochloride tetrahydrate was tested in comparison with streptomycin, glebomycin, myomycin B and kanamycin in respect to stimulating growth of E. coli D64 and in respect to inhibiting growth of B. subtilis PCI-219. The results are shown in Table 4 wherein the term "boholmycin" is used for short in referring to boholmycin dihydrochloride tetrahydrate.
*^1 8 mm paper disc containing 35 μl of test solution
*^3 Incubation at 28° C. for 18 hours

E. coli A20664 = assay: MIC by serial agar dilution; assay type: cell-based; conditions: E. coli A20664, kanamycin resistant strain; medium A: Nutrient agar
K. pneumoniae A9678 = assay: MIC by serial agar dilution; assay type: cell-based; conditions: medium A: Nutrient agar
Mycobacterium 607 D46 = assay: MIC by serial agar dilution; assay type: cell-based; conditions: Mycobacterium 607 D46, kanamycin resistant strain; medium B: No. 1001 medium
S. aureus Smith [1] = assay: MIC by serial agar dilution; assay type: cell-based; conditions: S. aureus Smith; medium A: Nutrient agar
Mycobacterium ranae = assay: MIC by serial agar dilution; assay type: cell-based; conditions: Mycobacterium ranae; medium B: No. 1001 medium
B. anthracis IID-115 = assay: microbe, parasite or virus in culture; assay type: cell-based; conditions: B. anthracis IID-115; medium A: Nutrient agar
S. aureus 209P = assay: MIC by serial agar dilution; assay type: cell-based; conditions: S. aureus 209P; medium A: Nutrient agar
P. mirabilis A9554 = assay: MIC by serial agar dilution; assay type: cell-based; conditions: medium A: Nutrient agar
E. coli JR35/c600 = assay: MIC by serial agar dilution; assay type: cell-based; conditions: E. coli JR35/c600, kanamycin resistant strain; medium A: Nutrient agar
P. vulgaris A9436 = assay: MIC by serial agar dilution; assay type: cell-based; conditions: medium A: Nutrient agar
S. aureus Smith [2] = assay: in vivo efficacy in mice against experimental infection; conditions: mice, i.m. just before challenge, S. aureus Smith, 5 days observation
S. marcescens A22302 = assay: MIC by serial agar dilution; assay type: cell-based; conditions: S. marcescens A22302, kanamycin resistant strain; medium A: Nutrient agar
K. pneumoniae D-11 [3] = assay: MIC by serial agar dilution; assay type: cell-based; conditions: medium A: Nutrient agar
P. aeruginosa A9843A = assay: microbe, parasite or virus in culture; assay type: cell-based; conditions: P. aeruginosa A9843A; medium A: Nutrient agar
E. coli K-12 = assay: MIC by serial agar dilution; assay type: cell-based; conditions: medium A: Nutrient agar
Mycobacterium phlei = assay: MIC by serial agar dilution; assay type: cell-based; conditions: Mycobacterium phlei; medium B: No. 1001 medium
Mycobacterium 607 D87 = assay: MIC by serial agar dilution; assay type: cell-based; conditions: Mycobacterium 607 D87; medium B: No. 1001 medium
B. subtilis ATCC6633 = assay: MIC by serial agar dilution; assay type: cell-based; conditions: medium A: Nutrient agar
E. coli NIHJ = assay: MIC by serial agar dilution; assay type: cell-based; conditions: medium A: Nutrient agar
P. aeruginosa A20601 = assay: MIC by serial agar dilution; assay type: cell-based; conditions: P. aeruginosa A20601, kanamycin resistant strain; medium A: Nutrient agar
E. cloacae A21006 = assay: MIC by serial agar dilution; assay type: cell-based; conditions: E. cloacae A21006, kanamycin resistant strain; medium A: Nutrient agar
E. coli Juhl [4] = assay: MIC by serial agar dilution; assay type: cell-based; conditions: medium A: Nutrient agar
M. luteus PCI-1001 = assay: MIC by serial agar dilution; assay type: cell-based; conditions: M. luteus PCI-1001; medium A: Nutrient agar
E. cloacae A20364 = assay: MIC by serial agar dilution; assay type: cell-based; conditions: E. cloacae A20364, kanamycin resistant strain; medium A: Nutrient agar
K. pneumoniae D-11 [5] = assay: in vivo efficacy in mice against experimental infection; conditions: mice, i.m. just before challenge, K. pneumoniae D-11, 5 days observation
M. flavus D-12 = assay: MIC by serial agar dilution; assay type: cell-based; conditions: medium A: Nutrient agar
E. coli Juhl [6] = assay: in vivo efficacy in mice against experimental infection; conditions: mice, i.m. just before challenge, E. coli Juhl, 5 days observation
P. aeruginosa A9930 = assay: MIC by serial agar dilution; assay type: cell-based; conditions: medium A: Nutrient agar
S. marcescens A20019 = assay: MIC by serial agar dilution; assay type: cell-based; conditions: S. marcescens A20019; medium A: Nutrient agar
S. aureus A20239 = assay: MIC by serial agar dilution; assay type: cell-based; conditions: S. aureus A20239, kanamycin resistant strain; medium A: Nutrient agar
[7] = tested on: experimental infections produced by S. aureus, E. coli and K. pneumoniae; assay: in vivo activity in mice, Table 5 overall; conditions: i.m.

## myomycin B
E. coli D64; 0.25 mg/ml, 37° C., 45 hours
  Growth zone vs E. coli D64, hazy growth zone: 28 mm
E. coli D64; 1 mg/ml, 37° C., 45 hours
  Growth zone vs E. coli D64: 17 mm
  Growth zone vs E. coli D64, hazy growth zone: 34 mm
E. coli D64; result in words
  induction/stimulation of growth of streptomycin-dependent E. coli D64: stimulate the growth
B. subtilis PCI-219; 0.25 mg/ml
  Inhibition zone vs B. subtilis PCI-219: 29 mm
B. subtilis PCI-219; 1 mg/ml
  Inhibition zone vs B. subtilis PCI-219: 34 mm

## CCC(=O)N[C@@H]1C(CO)O[C@H](O[C@@H]([C@H](N)[C@H](O)CO)[C@@H](O)CN)C(O)C1O (stereo partly shown) [sorbistin A1]
E. coli A20664
  MIC: 25 µg/mL (≈ 62.9 µM)
K. pneumoniae A9678
  MIC: 100 µg/mL (≈ 252 µM)
Mycobacterium 607 D46
  MIC: 100 µg/mL (≈ 252 µM)
S. aureus Smith [1]
  MIC: 50 µg/mL (≈ 126 µM)
Mycobacterium ranae
  MIC: 50 µg/mL (≈ 126 µM)
B. anthracis IID-115
  MIC: 50 µg/mL (≈ 126 µM)
S. aureus 209P
  MIC: 50 µg/mL (≈ 126 µM)
P. mirabilis A9554
  MIC: 50 µg/mL (≈ 126 µM)
E. coli JR35/c600
  MIC: 25 µg/mL (≈ 62.9 µM)
P. vulgaris A9436
  MIC: 50 µg/mL (≈ 126 µM)
S. aureus Smith [2]
  PD50: 50 mg/kg
S. marcescens A22302
  MIC: 400 µg/mL (≈ 1010 µM)
K. pneumoniae D-11 [3]
  MIC: 6.3 µg/mL (≈ 15.9 µM)
P. aeruginosa A9843A
  MIC: 6.3 µg/mL (≈ 15.9 µM)
E. coli K-12
  MIC: 25 µg/mL (≈ 62.9 µM)
Mycobacterium phlei
  MIC: 25 µg/mL (≈ 62.9 µM)
Mycobacterium 607 D87
  MIC: 50 µg/mL (≈ 126 µM)
B. subtilis ATCC6633
  MIC: 50 µg/mL (≈ 126 µM)
E. coli NIHJ
  MIC: 25 µg/mL (≈ 62.9 µM)
P. aeruginosa A20601
  MIC: 3.1 µg/mL (≈ 7.8 µM)
E. cloacae A21006
  MIC: 50 µg/mL (≈ 126 µM)
E. coli Juhl [4]
  MIC: 50 µg/mL (≈ 126 µM)
M. luteus PCI-1001
  MIC: 50 µg/mL (≈ 126 µM)
E. cloacae A20364
  MIC: 50 µg/mL (≈ 126 µM)
K. pneumoniae D-11 [5]
  PD50: 75 mg/kg
M. flavus D-12
  MIC: 12.5 µg/mL (≈ 31.5 µM)
E. coli Juhl [6]
  PD50: 100 mg/kg
P. aeruginosa A9930
  MIC: 12.5 µg/mL (≈ 31.5 µM)
S. marcescens A20019
  MIC: > 200 µg/mL
S. aureus A20239
  MIC: 100 µg/mL (≈ 252 µM)
[7]
  in vivo activity compared with streptomycin and kanamycin: much less active than streptomycin and kanamycin

From patent publication US4792545A, “Boholmycin antibiotic” (Bristol-Myers Company, priority 1986, dated 1988)
